Data published in publication PMC6797648 (Targeted Oncology, 2019).
Where “and” joins values, the source holds several entries; their conditions need not be identical. Identical values can stand only once.

Assays:
[1] = Caco-2 permeability and percent recovery; conditions: human, Caco-2, pH 7.4
[2] = target: PIK3CD/PIK3R1 (Homo sapiens, UniProt O00329); experiment: Purified enzyme-binding kinetics
[3] = Plasma and tissue distribution in A20 syngeneic model; type: in vivo, BALB/c mice; conditions: for Tumor concentration, times higher than plasma concentration: 4 h after the last dose
[4] = Blood to plasma ratio in human whole blood; type: in vitro ADME; conditions: from the human B:P of 1.4
[5] = Single-dose oral and IV pharmacokinetics in beagle dogs; type: in vivo, beagle dog
[6] = Allometric scaling of VSS to a hypothetical 60-kg human
[7] = healthy volunteers, oral; cited from earlier work
[8] = tested on: peripheral blood basophils; conditions: healthy volunteers, oral administration, CD63 expression following ex vivo stimulation; cited from earlier work
[9] = tested on: PI3Kδ; conditions: read-out: IC50, inhibition of PI3Kδ in cellular assays; cited from earlier work
[10] = target: purified PI3Kδ enzyme; conditions: read-out: IC50, inhibition of purified PI3Kδ enzyme; cited from earlier work
[11] = tested on: Caco-2 cell monolayer; experiment: Caco-2 permeability and percent recovery
[12] = 50 mg/kg twice daily for 4 days
[13] = ME-401 versus idelalisib, in vitro
[14] = 1 µM, Caco-2, apical to basolateral
[15] = 1 µM, Caco-2, basolateral to apical

PIK3CD/PIK3R1, sequence (O00329 whole entry): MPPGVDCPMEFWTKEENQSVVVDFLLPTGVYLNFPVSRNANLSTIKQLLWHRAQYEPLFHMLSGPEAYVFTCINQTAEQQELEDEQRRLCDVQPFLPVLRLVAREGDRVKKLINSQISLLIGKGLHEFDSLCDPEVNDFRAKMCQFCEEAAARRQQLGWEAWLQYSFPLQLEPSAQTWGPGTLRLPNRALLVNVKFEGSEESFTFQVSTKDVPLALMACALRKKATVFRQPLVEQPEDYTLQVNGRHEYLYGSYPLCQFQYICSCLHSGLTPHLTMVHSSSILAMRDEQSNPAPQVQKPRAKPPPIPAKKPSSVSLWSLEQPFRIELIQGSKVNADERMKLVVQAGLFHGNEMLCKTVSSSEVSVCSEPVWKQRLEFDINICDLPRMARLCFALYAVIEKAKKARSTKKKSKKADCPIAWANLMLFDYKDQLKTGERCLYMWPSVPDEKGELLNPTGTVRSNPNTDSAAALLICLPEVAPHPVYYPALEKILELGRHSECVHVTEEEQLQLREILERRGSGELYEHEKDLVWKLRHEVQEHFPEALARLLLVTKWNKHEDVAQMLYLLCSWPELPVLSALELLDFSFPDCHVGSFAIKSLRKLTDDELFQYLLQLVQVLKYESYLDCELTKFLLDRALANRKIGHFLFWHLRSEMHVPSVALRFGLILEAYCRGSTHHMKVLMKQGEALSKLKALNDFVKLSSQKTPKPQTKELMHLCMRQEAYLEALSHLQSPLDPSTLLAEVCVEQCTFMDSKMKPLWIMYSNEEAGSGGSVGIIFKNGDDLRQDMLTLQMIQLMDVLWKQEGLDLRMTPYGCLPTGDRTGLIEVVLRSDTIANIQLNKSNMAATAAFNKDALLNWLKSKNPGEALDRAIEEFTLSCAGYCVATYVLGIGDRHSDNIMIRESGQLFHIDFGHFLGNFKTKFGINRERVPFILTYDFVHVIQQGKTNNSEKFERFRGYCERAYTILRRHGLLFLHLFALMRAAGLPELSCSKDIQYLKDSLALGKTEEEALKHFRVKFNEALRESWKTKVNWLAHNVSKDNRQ
PIK3CD/PIK3R1, sequence (P27986 whole entry partner): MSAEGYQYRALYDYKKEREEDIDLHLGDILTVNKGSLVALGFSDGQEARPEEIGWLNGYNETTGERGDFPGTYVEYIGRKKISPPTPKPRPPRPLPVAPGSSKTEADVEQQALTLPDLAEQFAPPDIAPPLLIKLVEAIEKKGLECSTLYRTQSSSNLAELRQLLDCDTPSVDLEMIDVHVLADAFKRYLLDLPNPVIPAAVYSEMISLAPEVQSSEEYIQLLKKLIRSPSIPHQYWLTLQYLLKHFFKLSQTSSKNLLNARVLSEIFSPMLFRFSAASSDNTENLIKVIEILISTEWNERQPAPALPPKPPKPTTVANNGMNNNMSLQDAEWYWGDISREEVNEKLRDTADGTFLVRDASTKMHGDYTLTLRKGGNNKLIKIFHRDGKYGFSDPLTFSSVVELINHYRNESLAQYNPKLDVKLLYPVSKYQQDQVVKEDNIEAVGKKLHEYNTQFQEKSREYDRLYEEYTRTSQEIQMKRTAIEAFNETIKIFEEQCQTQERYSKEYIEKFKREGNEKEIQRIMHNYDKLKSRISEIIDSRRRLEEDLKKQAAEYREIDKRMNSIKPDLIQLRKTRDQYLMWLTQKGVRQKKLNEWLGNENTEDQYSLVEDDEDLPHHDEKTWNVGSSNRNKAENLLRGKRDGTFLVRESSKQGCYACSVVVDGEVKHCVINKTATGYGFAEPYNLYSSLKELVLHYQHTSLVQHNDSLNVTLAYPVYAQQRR

CC(C)NCC(O)COc1cccc2ccccc12 (stereo not drawn) [propranolol, reference compound]
Papp at 2 h, 10 uM [1]: > 30 ×10⁻⁶ cm/s

CC[C@H](Nc1ncnc2[nH]cnc12)c1nc2cccc(F)c2c(=O)n1-c1ccccc1 [Idelalisib, idelalisib, reference compound]
Dissociation rate, times higher than ME-401 ([2]; idelalisib versus ME-401): ~ 100 times | Tumor concentration, times higher than plasma concentration [3, 12]: approximately three times higher

CN1CCC(c2ccccc2CC(C)(C)Nc2nc(N3CCOCC3)nc(-n3c(C(F)F)nc4ccccc43)n2)CC1 [ME-401]
Drug in the blood that distributes into blood cells at equilibrium [4]: approximately 60% | Residence time ([2]; 22 °C): ~5 h and 5.3 h | kd dissociation rate constant ([2]; 22 °C, 1:1 binding model): 5.2e-05 s⁻¹ | Binds more tightly than idelalisib [2, 13]: ~ 37 times | Remains on-target longer than idelalisib [2, 13]: ~ 138 times | Kd ([2]; read-out: KD equilibrium dissociation constant, 22 °C, 1:1 binding model): 0.03 nM and 0.0303 nM | AUCinf ([5]; dogs, 2 mg/kg IV): 1247 ng·h/mL | Bioavailability ([5]; dogs, oral 2 mg/kg versus IV 2 mg/kg): 79% | AUCinf ([5]; fasted dogs, 2 mg/kg orally): 980 ng·h/mL | Extrapolated human VSS, times higher than blood volume [6]: approximately 100 times | Extrapolated human VSS, times higher than whole body volume [6]: approximately 15 times | Extrapolated human VSS, times larger than that reported for idelalisib [6]: ~ 28 times | Tumor concentration, times higher than plasma concentration [3, 12]: approximately 20 times | Brain tissue concentration as percent of plasma values ([3]; 75 mg/kg twice daily for 4 days, 4 and 24 h after the last dose): approximately 30% | Tumor concentration, times higher than plasma concentration ([3]; 75 mg/kg twice daily for 4 days): approximately 30 times | Decrease of tumor levels at 24 h compared with levels at 4 h ([3]; oral administration, A20 syngeneic mouse model): 30–50% | Half-life [7]: 28 h | EC90 plasma concentration, inhibition of basophil activation [8]: 5 ng/mL | IC50 [9]: 0.6 nM | IC50 [10]: 5 nM | Retained in the monolayer ([11]; 1 µM, Caco-2): ~ 50% | Recovery, AB, cell lysate included [11, 14]: 79.3 ± 5.5% | Recovery, AB, only the experimental solutions measured [11, 14]: 30.3 ± 6.7% | Recovery, BA, cell lysate included [11, 15]: 85 ± 8.5% | Recovery, BA, only the experimental solutions measured [11, 15]: 69 ± 5.6% | AB Papp ([11]; apical to basolateral, Caco-2, pH 7.4, 2 h, 37 °C): 3.67 ± 1.37 × 10^−6 cm/s | BA Papp ([11]; basolateral to apical, Caco-2, pH 7.4, 2 h, 37 °C): 7.69 ± 1.39 × 10^−6 cm/s
